Measured values: patent publication EP3818828A1 (priority 2019, dated 2021)
≈ marks a conversion by molar mass, not a printed value. Read-outs that look alike come from different tables or passages of the source.

Legend:
Botrytis cinerea = assay: Toxicity determination (EC50) on mycelial growth, growth rate method; format: cell-based
Description: (§1) The inhibition of samples for testing on the mycelial growth of plant pathogenic fungi for testing is determined with a growth rate method. 3-(3',4'-methylenedioxy phenyl)-N-n-propyl acrylamide, 3-(3',4'-methylenedioxy phenyl)-piperidine acrylate and five control agents are dissolved with dimethyl sulfoxide (DMSO), then formulated at 5-7 concentrations of different gradients for test following the trial test results, with the same concentration of DMSO as the control solvent, each treatment in triplicate. Fungal cakes with a diameter of 4 mm are taken from the edge of the colony, inoculated into the center of a PDA plate containing different agents of different concentrations and the DMSO control, with one piece of fungal cake inoculated in each plate (with a diameter of […]), and incubated in a constant temperature incubator at a temperature of 22±1.5°C. 7 days later (10-20 days may be needed for some pathogenic fungi), the diameter of the colony is measured with a cross over method according to the mycelial growth profile of the control pathogenic fungi, then the inhibition rate of mycelial growth is calculated.
(§2) 3-(3',4'-methylenedioxy phenyl)-piperidine acrylate, the control agents 96.5% of chlorothalonil technical and 97.0% of procymidone technical. Agents for testing and the control agents chlorothalonil and procymidone are treated at 5-8 concentrations of different gradients on the basis of preliminary tests to ensure that the inhibition rates for treatments at all the concentrations are between 10% and 90%.
(§3) For specific determination methods, with reference to Embodiment 1. The concentration of active ingredients in the culture medium is used as the testing concentration to calculate the toxic regression equation (Y=bx+a) and the median inhibition concentration EC50, 95% confidence limit, and relative toxicity. Relative toxicity (compared to chlorothalonil) = EC50 of chlorothalonil / EC50 of 3-(3',4'-methylenedioxy phenyl)-piperidine acrylate, and relative toxicity (compared to procymidone) = EC50 of procymidone / EC50 of 3-(3',4'-methylenedioxy phenyl)-piperidine acrylate.

Colletotrichum capsici = assay: as above; format: cell-based; settings: for EC50: median inhibition concentration
Description: as §1, §2, §3

Exserohilum turcicum = assay: as above; format: cell-based; settings: for EC50: median inhibition concentration
Description: as §1, §2, §3

Sclerotinia sclerotiorum = assay: as above; format: cell-based
Description: as §1, §2, §3

Valsa mali = assay: as above; format: cell-based; settings: for EC50: median inhibition concentration
Description: as §1, §2, §3

F. graminearum = assay: microbe, parasite or virus in culture; format: cell-based; settings: for EC50: median inhibition concentration
[1] = system: damping-off (P. aphanidermatum, P.capsici); assay: In-vivo greenhouse control of damping-off of tomatoes; settings: Tomato; sick soil; 0.80 mg/mL (active ingredients)
Description: (§4) 3.88 g of 3-(3',4'-methylenedioxy phenyl)-N-n-propyl acrylamide was weighed and dissolved in 25 g of absolute ethyl alcohol, then 6 g of emulsifier 0203B was added, and mixed uniformly with stirring to get 10% of 3-(3',4'-methylenedioxy phenyl)-N-n-propyl acrylamide EC.
(§5) 5.61 g of 3-(3',4'-methylenedioxy phenyl)-piperidine acrylate was weighed and dissolved in 25 g of absolute ethyl alcohol, then 6 g of emulsifier 0203B was added, and mixed uniformly with stirring to get 14% of 3-(3',4'-methylenedioxy phenyl)-piperidine acrylate EC.
(§6) Sick soil of damping-off (P. aphanidermatum, P.capsici) was collected from the fields of tomatoes, eggplants and peppers in a solar greenhouse, and mixed evenly in equal proportion. Tomatoes (Variety: Song Tian Fen Yang Yang, 100 grains), eggplants (Variety: Lanza No. 2 F1 long eggplant, 100 grains), pepper (Longjiao No. 2 F1, 100 grains) were seeded quantitatively with the sick soil in pots (diameter: 15 cm) in a greenhouse, additionally with sterile vermiculite as the control (each 100 grains for determining the germination rate). […] Mortality of seedlings was investigated after the seedlings had grown 2 true leaves, and the control effect of each treatment on damping-off was calculated. […]

[2] = system: damping-off (P. aphanidermatum, P.capsici); assay: In-vivo greenhouse control of damping-off of eggplants; settings: Eggplant; sick soil; 0.80 mg/mL (active ingredients)
Description: as §4, §5, §6

[3] = system: damping-off (P. aphanidermatum, P.capsici); assay: In-vivo greenhouse control of damping-off of peppers; settings: Pepper; sick soil; 0.80 mg/mL (active ingredients)
Description: as §4, §5, §6

cucumber powdery mildew = assay: In-vivo greenhouse determination of systemic action (root-irrigation) on cucumber powdery mildew
Description: as §5
Cucumber (Variety: Tianjin Mici) was sown in big pots (with a diameter of 30 cm) in a greenhouse, remaining 3 plants for each pot after emergence. The first root-irrigation was started at the early onset of cucumber powdery mildew (first appearance of spots on the true leaves). 14% of 3-(3',4'-methylenedioxy phenyl)-piperidine acrylate EC was diluted at three concentrations of 1.00, 0.667 and 0.50 mg/mL (active ingredients), 500 mL liquor for each pot. The root-irrigations were conducted every 7 days consecutively for 3 times. 10 days after the third root-irrigation, the number of sick leaves at each grade of cucumber powdery mildew was investigated for the whole plant following the grading standard of 9 grades, to calculate the disease index and the control effect.

[4] = EC50 of chlorothalonil / EC50 of agent
[5] = EC50 of procymidone / EC50 of agent
[6] = median inhibition concentration

## O=C(/C=C/c1ccc2c(c1)OCO2)N1CCCCC1 [3-(3',4'-methylenedioxyphenyl)-piperidine acrylate]
Botrytis cinerea; [4]
  Relative Toxicity (Compared to Chlorothalonil): 0.84
Botrytis cinerea; [5]
  Relative Toxicity (Compared to Procymidone): 0.37
Botrytis cinerea; [6]
  EC50: 212 µg/mL (≈ 816 µM)
Colletotrichum capsici; Colletotrichum truncatum, read-out: EC50
  EC50: 130 µg/mL (≈ 501 µM)
Colletotrichum capsici; [4]
  Relative Toxicity (Compared to Chlorothalonil): 3.23
Colletotrichum capsici; [5]
  Relative Toxicity (Compared to Procymidone): 4.13
Colletotrichum capsici; listed as 66#
  EC50: 125.3 µg/mL (≈ 483 µM)
Exserohilum turcicum; [4]
  Relative Toxicity (Compared to Chlorothalonil): 3.21
Exserohilum turcicum; [5]
  Relative Toxicity (Compared to Procymidone): 0.82
Exserohilum turcicum; listed as 66#
  EC50: 128.1 µg/mL (≈ 494 µM)
Exserohilum turcicum; read-out: EC50
  EC50: 130 µg/mL (≈ 501 µM)
Sclerotinia sclerotiorum; [4]
  Relative Toxicity (Compared to Chlorothalonil): 0.28
Sclerotinia sclerotiorum; [5]
  Relative Toxicity (Compared to Procymidone): 0.31
Sclerotinia sclerotiorum; [6]
  EC50: 227 µg/mL (≈ 875 µM)
Valsa mali; Cytospora mali, read-out: EC50
  EC50: 90 µg/mL (≈ 347 µM)
Valsa mali; [4]
  Relative Toxicity (Compared to Chlorothalonil): 4.68
Valsa mali; [5]
  Relative Toxicity (Compared to Procymidone): 4.78
Valsa mali; listed as 66#
  EC50: 89.4 µg/mL (≈ 345 µM)
F. graminearum; [4]
  Relative Toxicity (Compared to Chlorothalonil): 1.82
F. graminearum; [5]
  Relative Toxicity (Compared to Procymidone): 6.83
F. graminearum; Fusarium graminearum
  EC50: 120 µg/mL (≈ 463 µM)
F. graminearum; listed as 66#
  EC50: 124.5 µg/mL (≈ 480 µM)
[1]
  Control Effect: 61.41%
[2]
  Control Effect: 63.47%
[3]
  Control Effect: 67.71%
Cucumber powdery mildew; cucumber powdery mildew, uptake by roots and delivery upwards
  systemic activity: no systemic activity
Cucumber powdery mildew; root-irrigations at 1.00, 0.667 and 0.50 mg/mL at the early onset
  effects of root-irrigations on cucumber powdery mildew: no effects
